US8299083B2, “PDE5 inhibitor compositions and methods for treating cardiac indications” (The Johns Hopkins University, priority 2004, dated 2012)

What was measured:
[1] = test system: C57BL/6 mice, pressure overload by transverse aortic constriction; assay: In vivo cardiac hemodynamics by pressure-volume analysis, TAC mice; design: species or system mouse
Method: Pressure overload was produced by transverse aortic constriction.
Transthoracic two-dimensional guided M-mode echocardiography was performed in non-anesthetized mice. Measurements were done using an echocardiography system, the SEQUOIA C256 (Siemens, Munich, Del.) with the 15 MHz linear-array transducer. Intact heart hemodynamic analysis was performed as described^90. These studies employed a four-electrode pressure-volume catheter (model SPR-839, Millar Instruments) placed through the left ventricular apex in the open chest anesthetized animal and positioned along the longitudinal axis to record chamber volume by impedance and pressure by micromanometry.
All hemodynamic data were recorded using custom developed software, digitizing signals at 2 KHz. End-diastolic and end-systolic volumes were the average of volumes measured during isovolumic contraction and relaxation, respectively. ESP was the pressure at maximal chamber elastance (P/V ratio)^1. EDP was the diastolic pressure at the lower right hand corner of the pressure-volume loop. Cardiac output was determined from a perivascular flow probe (Transonics, Ithica, N.Y.) placed around the thoracic aorta. Ea was equal to the ratio of end-systolic pressure divided by stroke volume. The volume catheter signal was calibrated for both gain and offset. Gain was determined by setting the catheter-derived cardiac output (equal to pressure-volume loop width times heart rate) to that obtained from the calibrated flow probe value. Offset was determined using the hypertonic saline method Ventricular power was equal to the instantaneous product of pressure times flow, and the peak power was divided by EDV to obtain the power index PMXI^79. […] The slope of this relation Ees was normalized by heart mass and expressed per gm heart mass. Msw was derived from the linear relation between stroke work and EDV from the same set of variably loaded cardiac cycles used to derive Eesn, and is another load-independent assessment of systolic contractile function^4. Tau was obtained from the model: P=Po+ae^−t/□ . . . fitting data during isovolumic relaxation. dP/dt was derived from a digital filter (5-point weighted slope). PFR/EDV was derived from the maximal first derivative of the volume signal during early diastole, divided by EDV.

NOS3 = NOS3 dimer/monomer Western blot in TAC hearts; format: in vivo, mouse; conditions: 3 weeks TAC
myocardial cGMP = assay: Myocardial cyclic nucleotide levels; format: in vivo, mouse
Description: Hearts were washed in ice-cold PBS, homogenized in 6% trichloroacetic acid, centrifuged and extracted with water-saturated ether. The aqueous layer was transferred, vacuum dried, and the pellet resuspended in sodium acetate buffer for cAMP and cGMP enzyme immunoassay (Amersham Pharmacia Biotech, Buckinghamshire, UK).

[2] = test system: C57bl6 mice, isoproterenol-stimulated heart; assay: Acute isoproterenol-stimulated contractility in intact mice (pressure-volume relations); format: in vivo, mouse
Method: Isoproterenol (ISO: 20 ng/kg/minutes i.v.×5 min) with or without PDE5A inhibitor was given to anesthetized intact mice, and in vivo heart function assessed by pressure-volume relations at a fixed atrial pacing rate of 600-650 min^−1. Data were measured at baseline, with ISO, re-baseline, PDE5A-inhibition, and PDE5A inhibition+ISO. The ISO-only response was highly reproducible.

[3] = test system: isolated adult murine myocytes; assay: Isoproterenol-stimulated contraction of isolated adult cardiac myocytes; format: cell-based, mouse; conditions: sildenafil 100 nM
Method: Louis, Mo.) for 6-7 min. Ventricles were gently chopped, filtered (150μ mesh), centrifuged (500 RPM×1 min), and rinsed in Tyrode's solution with increasing calcium (final 1.8 mM Ca^2+). Cells were incubated with 5 μM Indo-1 AM (Molecular Probes), rinsed, and studied at 27° C. by field stimulation in an inverted fluorescence microscope (Diaphot 200; Nikon, Inc). Sarcomere length (IonOptix, MA) and whole cell calcium transients were measured.

GSK3β = GSK3β phosphorylation in TAC hearts (Western blot); format: in vivo, mouse
Method: Protein was prepared from snap-frozen heart tissue using extraction buffer as described previously^90. Antibodies included calcineurin (1:2000 dilution, BD Transduction Laboratories (San Diego, Calif.), GSK3β, Ser9-phospho-GSK313, Akt, Ser473-phospho-Akt, ERK, Thr202/Thr204-phospho-ERK (1:1000 dilution, Cell Signaling Technology, Beverly, Mass.). Primary antibody binding was visualized by horse radish peroxidase-conjugated secondary antibodies and enhanced chemiluminescence (Pierce, Rockford, Ill.).

PI3Kα = PI3Kα activity in TAC hearts; format: in vivo, mouse; conditions: 3 week TAC
Method: PI3Kα activity was assessed by Elisa assay following immunoprecipitation of PI3K (Seize X IP Kit, Pierce) using a p85α monoclonal antibody (Cell Signaling), with activity measured by fluorescence polarization (Molecular Devices, Perkin-Elmer Victor 3 plate reader). Akt activity (IP with s473-pAkt Ab, GSK-3 fusion protein substrate) was performed using a commercial kit (Cell Signaling Technology, Beverly, Mass.). PKG-1 activity was assayed by calorimetric analysis, CycLex (Clinisciences, Montrouge, FR) from whole heart lysates.

## CCCc1nn(C)c2c(=O)[nH]c(-c3cc(S(=O)(=O)N4CCN(C)CC4)ccc3OCC)nc12 [sildenafil]
[1]; 3 wk TAC + Delay (2 wk) Sil
  CO (cardiac output): 10.7 ± 0.5 mL/min
  EDP (LV end-diastolic pressure): 7.5 ± 0.6 mmHg
  EDV (LV end-diastolic volume): 29.4 ± 2.0 µL
  EF (ejection fraction): 64.0 ± 4.7%
  ESP (LV end-systolic pressure): 184.0 ± 9.1 (b) mmHg
  ESV (LV end-systolic volume): 10.9 ± 2.1 µL
  Ea (effective arterial elastance): 9.9 ± 0.6 (b) mmHg/μL
  Eesn (end-systolic elastance normalized to heart mass): 111.0 ± 31.4 mmHg/μL/g
  HR (heart rate): 574.6 ± 21.7 MIN^−
  Msw (preload recruitable stroke work): 171.3 ± 27.6 (i) mmHg
  PFR/EDV (peak diastolic filling rate normalized to EDV): 30.6 ± 3.6 s⁻¹
  Tau (time constant of pressure relaxation): 7.5 ± 0.3 M·s
  dP/dtmax (maximal rate of pressure rise): 14879 ± 898 mmHg/s
  dP/dtmin (peak rate of LV pressure decline): −14325 ± 445 (j) mmHg/s
  dP/dtmx/IP (dP/dtmax normalized to instantaneous developed pressure): 209.4 ± 11.1 s⁻¹
[1]; 3 wk TAC + Sil
  CO (cardiac output): 9.4 ± 0.5 mL/min
  EDP (LV end-diastolic pressure): 7.6 ± 1.4 mmHg
  EDV (LV end-diastolic volume): 22.2 ± 1.5 µL
  EF (ejection fraction): 72.6 ± 5.7%
  ESP (LV end-systolic pressure): 163.6 ± 5.6 (b) mmHg
  ESV (LV end-systolic volume): 6.4 ± 1.7 µL
  Ea (effective arterial elastance): 10.5 ± 0.8 (b) mmHg/μL
  Eesn (end-systolic elastance normalized to heart mass): 133.0 ± 25.1 (i) mmHg/μL/g
  HR (heart rate): 598.8 ± 23.8 MIN^−
  Msw (preload recruitable stroke work): 162.5 ± 10.5 (i) mmHg
  PFR/EDV (peak diastolic filling rate normalized to EDV): 43.1 ± 4.9 (k) sec^−1
  Tau (time constant of pressure relaxation): 6.3 ± 0.4 M·s
  dP/dtmax (maximal rate of pressure rise): 18638 ± 1379 (f) mmHg/s
  dP/dtmin (peak rate of LV pressure decline): −16758 ± 917 (f) mmHg/s
  dP/dtmx/IP (dP/dtmax normalized to instantaneous developed pressure): 256.5 ± 8.4 g/s
[1]; Sildenafil 3 wk, no TAC
  CO (cardiac output): 11.1 ± 1.1 mL/min
  EDP (LV end-diastolic pressure): 6.5 ± 1.0 mmHg
  EDV (LV end-diastolic volume): 32.8 ± 2.3 µL
  EF (ejection fraction): 61.4 ± 6.1%
  ESP (LV end-systolic pressure): 101.5 ± 2.6 mmHg
  ESV (LV end-systolic volume): 13.0 ± 2.7 µL
  Ea (effective arterial elastance): 5.3 ± 0.5 mmHg/μL
  Eesn (end-systolic elastance normalized to heart mass): 47.6 ± 5.8 mmHg/μL/g
  HR (heart rate): 558.5 ± 22.9 MIN^−
  Msw (preload recruitable stroke work): 84.0 ± 5.7 mmHg
  PFR/EDV (peak diastolic filling rate normalized to EDV): 34.1 ± 1.9 s⁻¹
  Tau (time constant of pressure relaxation): 7.6 ± 0.4 M·s
  dP/dtmax (maximal rate of pressure rise): 11843 ± 681 mmHg/s
  dP/dtmin (peak rate of LV pressure decline): −10689 ± 399 mmHg/s
  dP/dtmx/IP (dP/dtmax normalized to instantaneous developed pressure): 183.7 ± 6.9 s⁻¹
NOS3
  NOS3 dimer (280 kD) level: prevented the loss of NOS dimer
Myocardial cGMP; TAC hearts, chronic co-treatment
  total myocardial cGMP: declined
Myocardial cGMP; basal or TAC conditions
  myocardial cAMP levels: did not alter myocardial cAMP levels
Myocardial cGMP; sham controls, chronic treatment
  total myocardial cGMP: did not change
[2]; acute intravenous administration
  isoproterenol-stimulated contractility in intact heart: marked suppression of this adrenergic stimulation response
[2]; given alone, no ISO
  effect on the heart at rest (dP/dtmax): no effect on the heart at rest
[3]
  isoproterenol-enhanced contraction of isolated cardiac muscle cells: blunted
GSK3β; 1-week TAC
  GSK3β activation: remained unchanged
GSK3β; 9-weeks TAC
  Akt and GSK3β activation: reduced both
PI3Kα
  TAC-increased PI3Kα activity: suppressed
